# Assay results taken from PubChem BioAssay AID1963841 (Molecular Pharmacology Branch, DTP, NCI, 2024).
# Tested on: 439559-082-T-J2-PDC spheroid viability
# Assay: Anticancer human tumor 439559-082-T-J2-PDC patient-derived colon adenocarcinoma cell line growth inhibition [POLQ]
# Conditions: spheroids with HUVEC and MSC; for IC50: curve of first compound; for viability, T/C: stronger effect = lower value
# In short: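 Complex spheroid viability model combining PDC tumour cells with endothelial (HUVEC) and MSC stromal cells. Novobiocin, ART-558 or RP6685 were tested singly and in combination with standard and investigational anticancer drugs. Each was titrated in half-log steps from near clinical Cmax, or from 10 microM where Cmax was unknown.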
# [1] = second compound 0.0316 µM, first compound 0.0316 µM
# [2] = second compound 0.0316 µM, first compound 0.1 µM
# [3] = second compound 0.0316 µM, first compound 0.316 µM
# [4] = second compound 0.0316 µM, first compound 1 µM
# [5] = second compound 0.0316 µM, first compound 3.16 µM
# [6] = second compound 0.0316 µM, first compound 10 µM
# [7] = second compound 0.1 µM, first compound 0.0316 µM
# [8] = second compound 0.1 µM, first compound 0.1 µM
# [9] = second compound 0.1 µM, first compound 0.316 µM
# [10] = second compound 0.1 µM, first compound 1 µM
# [11] = second compound 0.1 µM, first compound 3.16 µM
# [12] = second compound 0.1 µM, first compound 10 µM
# [13] = second compound 0.316 µM, first compound 0.0316 µM
# [14] = second compound 0.316 µM, first compound 0.1 µM
# [15] = second compound 0.316 µM, first compound 0.316 µM
# [16] = second compound 0.316 µM, first compound 1 µM
# [17] = second compound 0.316 µM, first compound 3.16 µM
# [18] = second compound 0.316 µM, first compound 10 µM
# [19] = second compound 1 µM, first compound 0.0316 µM
# [20] = second compound 1 µM, first compound 0.1 µM
# [21] = second compound 1 µM, first compound 0.316 µM
# [22] = second compound 1 µM, first compound 1 µM
# [23] = second compound 1 µM, first compound 3.16 µM
# [24] = second compound 1 µM, first compound 10 µM
# [25] = second compound 3.16 µM, first compound 0.0316 µM
# [26] = second compound 3.16 µM, first compound 0.1 µM
# [27] = second compound 3.16 µM, first compound 0.316 µM
# [28] = second compound 3.16 µM, first compound 1 µM
# [29] = second compound 3.16 µM, first compound 3.16 µM
# [30] = second compound 3.16 µM, first compound 10 µM
# [31] = second compound 10 µM, first compound 0.0316 µM
# [32] = second compound 10 µM, first compound 0.1 µM
# [33] = second compound 10 µM, first compound 0.316 µM
# [34] = second compound 10 µM, first compound 1 µM
# [35] = second compound 10 µM, first compound 3.16 µM
# [36] = second compound 10 µM, first compound 10 µM
# 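Note: spheroids exposed to compounds for seven days before readout.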
# 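Throughout, for viability, T/C: 100% = DMSO vehicle control viability.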
structure (smiles),measurement,setting,value
CC1COCCN1c1cc(-c2ccnn2C)c2ccnc(-c3ccn[nH]3)c2n1 (stereo unspecified) + Cc1cccc(N(C)C(=O)C2C(O)CCN2c2nc(C)cc(C(F)(F)F)c2C#N)c1,IC50,second compound 0.0316 µM,557 nM
same,IC50,second compound 0.1 µM,397 nM
same,IC50,second compound 0.316 µM,311 nM
same,IC50,second compound 1 µM,478 nM
same,IC50,second compound 3.16 µM,291 nM
same,IC50,second compound 10 µM,841 nM
same,"viability, T/C",[1],91%
same,"viability, T/C",[2],79.8%
same,"viability, T/C",[3],50.9%
same,"viability, T/C",[4],49.7%
same,"viability, T/C",[5],53.6%
same,"viability, T/C",[6],43.6%
same,"viability, T/C",[7],95.5%
same,"viability, T/C",[8],81.1%
same,"viability, T/C",[9],51.2%
same,"viability, T/C",[10],44.3%
same,"viability, T/C",[11],49.4%
same,"viability, T/C",[12],43.3%
same,"viability, T/C",[13],87.7%
same,"viability, T/C",[14],80.3%
same,"viability, T/C",[15],49.5%
same,"viability, T/C",[16],47.8%
same,"viability, T/C",[17],51.6%
same,"viability, T/C",[18],40.8%
same,"viability, T/C",[19],92.9%
same,"viability, T/C",[20],76.9%
same,"viability, T/C",[21],52%
same,"viability, T/C",[22],46.2%
same,"viability, T/C",[23],51.4%
same,"viability, T/C",[24],37.4%
same,"viability, T/C",[25],89%
same,"viability, T/C",[26],76.8%
same,"viability, T/C",[27],47.2%
same,"viability, T/C",[28],46.7%
same,"viability, T/C",[29],55.8%
same,"viability, T/C",[30],42%
same,"viability, T/C",[31],82.3%
same,"viability, T/C",[32],72.3%
same,"viability, T/C",[33],50.6%
same,"viability, T/C",[34],49.7%
same,"viability, T/C",[35],49.8%
same,"viability, T/C",[36],36.8%
CC[C@@]1(O)C(=O)OCc2c1cc1n(c2=O)Cc2cc3c(CN(C)C)c(O)ccc3nc2-1 + Nc1ccc(C#CCN(C(=O)Cc2ncc(C(F)(F)F)cc2C(F)(F)F)c2ccc(F)cc2)nn1,IC50,second compound 0.0316 µM,> 100 nM
same,IC50,second compound 0.1 µM,> 100 nM
same,IC50,second compound 0.316 µM,> 100 nM
same,IC50,second compound 1 µM,> 100 nM
same,IC50,second compound 3.16 µM,> 100 nM
same,IC50,second compound 10 µM,> 100 nM
same,"viability, T/C","second compound 0.0316 µM, first compound 0.000316 µM",104%
same,"viability, T/C","second compound 0.0316 µM, first compound 0.001 µM",97%
same,"viability, T/C","second compound 0.0316 µM, first compound 0.00316 µM",81.4%
same,"viability, T/C","second compound 0.0316 µM, first compound 0.01 µM",108%
same,"viability, T/C",[1],85.8%
same,"viability, T/C",[2],82.8%
same,"viability, T/C","second compound 0.1 µM, first compound 0.000316 µM",107%
same,"viability, T/C","second compound 0.1 µM, first compound 0.001 µM",103%
same,"viability, T/C","second compound 0.1 µM, first compound 0.00316 µM",96.3%
same,"viability, T/C","second compound 0.1 µM, first compound 0.01 µM",105%
same,"viability, T/C",[7],85.9%
same,"viability, T/C",[8],76.3%
same,"viability, T/C","second compound 0.316 µM, first compound 0.000316 µM",108%
same,"viability, T/C","second compound 0.316 µM, first compound 0.001 µM",110%
same,"viability, T/C","second compound 0.316 µM, first compound 0.00316 µM",101%
same,"viability, T/C","second compound 0.316 µM, first compound 0.01 µM",104%
same,"viability, T/C",[13],93.6%
same,"viability, T/C",[14],79%
same,"viability, T/C","second compound 1 µM, first compound 0.000316 µM",86.7%
same,"viability, T/C","second compound 1 µM, first compound 0.001 µM",98.6%
same,"viability, T/C","second compound 1 µM, first compound 0.00316 µM",83.8%
same,"viability, T/C","second compound 1 µM, first compound 0.01 µM",97.9%
same,"viability, T/C",[19],88.7%
same,"viability, T/C",[20],75.4%
same,"viability, T/C","second compound 3.16 µM, first compound 0.000316 µM",114%
same,"viability, T/C","second compound 3.16 µM, first compound 0.001 µM",113%
same,"viability, T/C","second compound 3.16 µM, first compound 0.00316 µM",92%
same,"viability, T/C","second compound 3.16 µM, first compound 0.01 µM",88.4%
same,"viability, T/C",[25],88%
same,"viability, T/C",[26],89.9%
same,"viability, T/C","second compound 10 µM, first compound 0.000316 µM",91.8%
same,"viability, T/C","second compound 10 µM, first compound 0.001 µM",94.8%
same,"viability, T/C","second compound 10 µM, first compound 0.00316 µM",87.9%
same,"viability, T/C","second compound 10 µM, first compound 0.01 µM",90.2%
same,"viability, T/C",[31],86%
same,"viability, T/C",[32],75.9%
O=C(c1cc(Cc2n[nH]c(=O)c3ccccc23)ccc1F)N1CCN(C(=O)C2CC2)CC1 + Cc1cccc(N(C)C(=O)C2C(O)CCN2c2nc(C)cc(C(F)(F)F)c2C#N)c1,IC50,second compound 0.0316 µM,> 10000 nM
same,IC50,second compound 0.1 µM,> 10000 nM
same,IC50,second compound 0.316 µM,> 10000 nM
same,IC50,second compound 1 µM,> 10000 nM
same,IC50,second compound 3.16 µM,> 10000 nM
same,IC50,second compound 10 µM,> 10000 nM
same,"viability, T/C",[1],95.8%
same,"viability, T/C",[2],103%
same,"viability, T/C",[3],107%
same,"viability, T/C",[4],107%
same,"viability, T/C",[5],95%
same,"viability, T/C",[6],92.1%
same,"viability, T/C",[7],103%
same,"viability, T/C",[8],98.7%
same,"viability, T/C",[9],101%
same,"viability, T/C",[10],109%
same,"viability, T/C",[11],94.4%
same,"viability, T/C",[12],101%
same,"viability, T/C",[13],103%
same,"viability, T/C",[14],100%
same,"viability, T/C",[15],98.4%
same,"viability, T/C",[16],108%
same,"viability, T/C",[17],102%
same,"viability, T/C",[18],97.1%
same,"viability, T/C",[19],103%
same,"viability, T/C",[20],106%
same,"viability, T/C",[21],102%
same,"viability, T/C",[22],103%
same,"viability, T/C",[23],98.8%
same,"viability, T/C",[24],98.8%
same,"viability, T/C",[25],94%
same,"viability, T/C",[26],106%
same,"viability, T/C",[27],98.4%
same,"viability, T/C",[28],98.3%
same,"viability, T/C",[29],103%
same,"viability, T/C",[30],95.2%
same,"viability, T/C",[31],97.9%
same,"viability, T/C",[32],91.4%
same,"viability, T/C",[33],95.3%
same,"viability, T/C",[34],98.3%
same,"viability, T/C",[35],97.5%
same,"viability, T/C",[36],83.6%
